According to PubChem BioAssay AID1918935 (Molecular Pharmacology Branch, DTP, NCI, 2023):
“And” between values parts separate entries of the source, which are not always exact repeats. Equal values may be shown once.

Test system: 324938-238-R-J1-PDC complex spheroid viability
Assay: Anticancer human tumor 324938-238-R-J1-PDC patient-derived bladder carcinoma cell line growth inhibition
Details: for viability, T/C: stronger effect = lower value
Method in brief: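 Complex spheroids of tumor cells with HUVEC and human MSCs, exposed to iadademstat combined with other agents. Each agent tested in half-log steps from near clinical Cmax (else 10 microM top), DMSO ≤0.25%.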

[1] = curve of first compound, second compound 0.1 µM
[2] = curve of first compound, second compound 0.316 µM
[3] = curve of first compound, second compound 1 µM
[4] = curve of first compound, second compound 3.16 µM
[5] = curve of first compound, second compound 10 µM
[6] = second compound 0.1 µM, first compound 0.0316 µM
[7] = second compound 0.1 µM, first compound 0.1 µM
[8] = second compound 0.1 µM, first compound 0.316 µM
[9] = second compound 0.1 µM, first compound 1 µM
[10] = second compound 0.316 µM, first compound 0.0316 µM
[11] = second compound 0.316 µM, first compound 0.1 µM
[12] = second compound 0.316 µM, first compound 0.316 µM
[13] = second compound 0.316 µM, first compound 1 µM
[14] = second compound 1 µM, first compound 0.0316 µM
[15] = second compound 1 µM, first compound 0.1 µM
[16] = second compound 1 µM, first compound 0.316 µM
[17] = second compound 1 µM, first compound 1 µM
[18] = second compound 3.16 µM, first compound 0.0316 µM
[19] = second compound 3.16 µM, first compound 0.1 µM
[20] = second compound 3.16 µM, first compound 0.316 µM
[21] = second compound 3.16 µM, first compound 1 µM
[22] = second compound 10 µM, first compound 0.0316 µM
[23] = second compound 10 µM, first compound 0.1 µM
[24] = second compound 10 µM, first compound 0.316 µM
[25] = second compound 10 µM, first compound 1 µM
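Further: spheroids also contain HUVEC and human MSCs and agents combined with iadademstat; spheroids exposed to agents for 7 days before readout.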

Structure (SMILES)	IC50 [1]	IC50 [2]	IC50 [3]	IC50 [4]	IC50 [5]	viability, T/C [6]	viability, T/C [7]	viability, T/C [8]	viability, T/C [9]	viability, T/C [10]	viability, T/C [11]	viability, T/C [12]	viability, T/C [13]	viability, T/C [14]	viability, T/C [15]	viability, T/C [16]	viability, T/C [17]	viability, T/C [18]	viability, T/C [19]	viability, T/C [20]	further results
CC(C)CC(NC(=O)CNC(=O)c1cc(Cl)ccc1Cl)B1OC(=O)CC(CC(=O)O)(C(=O)O)O1 (configuration not stated)																					viability, T/C (compound 0.000316 µM): 104% and 111%; viability, T/C (compound 0.001 µM): 106% and 77.7%; viability, T/C (compound 0.00316 µM): 38.2% and 23.3%; viability, T/C (compound 0.01 µM): 5.09% and 2.42%; viability, T/C (compound 0.0316 µM): 0.23% and 0.77%; viability, T/C (compound 0.1 µM): 0.23% and 0.24%; IC50 (curve of compound): 2.58 nM and 1.79 nM
CC(C)c1c(-c2ccccc2)nc2c(C#N)c[nH]n2c1=O + NC1CCC(NC2CC2c2ccccc2)CC1	> 10000 nM	> 10000 nM	> 10000 nM	> 10000 nM	> 10000 nM	69.7%	90%	85.2%	89.2%	83%	84.1%	84.4%	84.8%	87%	90%	78.2%	84.9%	72.8%	78.9%	87.7%	viability, T/C (second compound 0.1 µM, first compound 3.16 µM): 82.2%; viability, T/C (second compound 0.1 µM, first compound 10 µM): 74.6%; viability, T/C (second compound 0.316 µM, first compound 3.16 µM): 81.4%; viability, T/C (second compound 0.316 µM, first compound 10 µM): 78.7%; viability, T/C (second compound 1 µM, first compound 3.16 µM): 81.6%; viability, T/C (second compound 1 µM, first compound 10 µM): 80.9%; viability, T/C [21]: 80.6%; viability, T/C (second compound 3.16 µM, first compound 3.16 µM): 80.1%; viability, T/C (second compound 3.16 µM, first compound 10 µM): 74.3%; viability, T/C [22]: 66.5%; viability, T/C [23]: 70.7%; viability, T/C [24]: 75.9%; viability, T/C [25]: 75.1%; viability, T/C (second compound 10 µM, first compound 3.16 µM): 65.6%; viability, T/C (second compound 10 µM, first compound 10 µM): 77.9%
O=C(C=Cn1cnc(-c2cc(C(F)(F)F)cc(C(F)(F)F)c2)n1)NNc1cnccn1 + NC1CC1c1ccc(-c2cccc(O)c2)cc1	< 3.16 nM	< 3.16 nM	< 3.16 nM	< 3.16 nM	< 3.16 nM	14.1%	4.16%	3%	1.86%	14.2%	5.76%	2.95%	1.73%	13.8%	5.75%	2.87%	2.29%	15.4%	6%	2.83%	viability, T/C (second compound 0.1 µM, first compound 0.00316 µM): 46%; viability, T/C (second compound 0.1 µM, first compound 0.01 µM): 26.3%; viability, T/C (second compound 0.316 µM, first compound 0.00316 µM): 42.2%; viability, T/C (second compound 0.316 µM, first compound 0.01 µM): 27%; viability, T/C (second compound 1 µM, first compound 0.00316 µM): 36.1%; viability, T/C (second compound 1 µM, first compound 0.01 µM): 25.1%; viability, T/C (second compound 3.16 µM, first compound 0.00316 µM): 38.3%; viability, T/C (second compound 3.16 µM, first compound 0.01 µM): 27.7%; viability, T/C [21]: 2.25%; viability, T/C (second compound 10 µM, first compound 0.00316 µM): 42.1%; viability, T/C (second compound 10 µM, first compound 0.01 µM): 30.2%; viability, T/C [22]: 20.4%; viability, T/C [23]: 11.6%; viability, T/C [24]: 5.72%; viability, T/C [25]: 2.7%
